Laboratory results from patent US7163952B2, “Azole compound and medicinal use thereof” (Japan Tobacco Inc., priority 2001, dated 2007).

Row | Structure (SMILES) | melting point
1 | CC(C)N(c1ccc(C(=O)O)cc1)c1nc(-c2ccc(OCc3ccc(C4CCCCC4)cc3)cc2)cs1 [Example 24, 4-(N-(4-(4-(4-cyclohexylbenzyloxy)phenyl)-2-thiazolyl)-N-isopropylamino)benzoic acid] | 238 to 240 °C
2 | O=C(O)c1ccc(N(CC2CCCCC2)c2nc(-c3ccc(OCc4ccc(C5CCCCC5)cc4)cc3)cs2)cc1 [Example 25, 4-(N-(4-(4-(4-cyclohexylbenzyloxy)phenyl)-2-thiazolyl)-N-cyclohexylmethylamino)benzoic acid] | 230 °C (dec.)
3 | O=C(O)CCCN(c1ccc(C(=O)O)cc1)c1nc(-c2ccc(OCc3ccc(C4CCCCC4)cc3)cc2)cs1 [Example 26, 4-(N-(3-carboxypropyl)-N-(4-(4-(4-cyclohexylbenzyloxy)phenyl)-2-thiazolyl)amino)benzoic acid] | 230 °C (dec.)
4 | O=C(O)c1cccc(Nc2nc(-c3ccc(NC(=O)c4ccc(C5CCCCC5)cc4)cc3)cs2)c1 [Example 27, 3-(4-(4-(4-cyclohexylbenzoylamino)phenyl)-2-thiazolylamino)benzoic acid] | 230 °C (dec.)
5 | CC(C)N(c1cccc(C(=O)O)c1)c1nc(-c2ccc(NC(=O)c3ccc(C4CCCCC4)cc3)cc2)cs1 [Example 28, 3-(N-(4-(4-(4-cyclohexylbenzoylamino)phenyl)-2-thiazolyl)-N-isopropylamino)benzoic acid] | 230 °C (dec.)
6 | CC(C)N(c1ccc(C(=O)[O-])cc1)c1nc(-c2ccc(OCc3ccc(C4CCCCC4)cc3)cc2)cs1.[Na+] [Example 34, sodium 4-(N-(4-(4-(4-cyclohexylbenzyloxy)phenyl)-2-thiazolyl)-N-isopropylamino)benzoate] | 230 °C (dec.)
7 | CC(C)N(c1ccc(C(=O)[O-])cc1)c1nc(-c2ccc(NC(=O)c3ccc(N4CCN(C)CC4)cc3)cc2)cs1.[Na+] [Example 37, sodium 4-(N-isopropyl-N-(4-(4-(4-(4-methyl-1-piperazinyl)benzoylamino)phenyl)-2-thiazolyl)amino)benzoate] | 230 °C (dec.)
8 | CC(C)N(c1ccc(C(=O)O)c(Cl)c1)c1nc(-c2ccc(NC(=O)c3ccc(C4CCCCC4)cc3)cc2)cs1 [Example 38, 2-chloro-4-(N-(4-(4-(4-cyclohexylbenzoylamino)phenyl)-2-thiazolyl)-N-isopropylamino)benzoic acid] | 220 °C (dec.)
9 | CC(C)N(c1ccc(C(=O)O)c(Cl)c1)c1nc(-c2ccc(NC(=O)c3ccc(N4CCN(C)CC4)cc3)cc2)cs1 [Example 41, 2-chloro-4-(N-isopropyl-N-(4-(4-(4-(4-methyl-1-piperazinyl)benzoylamino)phenyl)-2-thiazolyl)amino)benzoic acid] | 220 °C (dec.)
10 | CC(C)(c1ccc(C(=O)O)cc1)c1nc(-c2ccc(OCc3ccc(C4CCCCC4)cc3)cc2)cs1 [Example 42, 4-(1-(4-(4-(4-cyclohexylbenzyloxy)phenyl)-2-thiazolyl)-1-methylethyl)benzoic acid] | 219 to 221 °C
11 | CC(C)(c1ccc(C(=O)O)cc1)c1nc(-c2ccc(NC(=O)c3ccc(C4CCCCC4)cc3)cc2)cs1 [Example 43, 4-(1-(4-(4-(4-cyclohexylbenzoylamino)phenyl)-2-thiazolyl)-1-methylethyl)benzoic acid] | 262 to 264 °C
12 | CC(C)(c1ccc(C(=O)O)cc1)c1nc(-c2ccc(NC(=O)c3ccc(N4CCOCC4)cc3)cc2)cs1 [Example 44, 4-(1-methyl-1-(4-(4-(4-morpholinobenzoylamino)phenyl)-2-thiazolyl)ethyl)benzoic acid] | 290 °C (dec.)
13 | CC(C)(c1ccc(C(=O)O)cc1)c1nc(-c2ccc(NC(=O)c3ccc(N4CCCCC4)cc3)cc2)cs1 [Example 45, 4-(1-methyl-1-(4-(4-(4-piperidinobenzoylamino)phenyl)-2-thiazolyl)ethyl)benzoic acid] | 268 to 271 °C
14 | CC(C)N(c1ccc(C(=O)O)cc1)c1nc(-c2ccc(NC(=O)CCCC3CCCCC3)cc2)cs1 [Example 46, 4-(N-(4-(4-(4-cyclohexylbutyrylamino)phenyl)-2-thiazolyl)-N-isopropylamino)benzoic acid] | 230 °C (dec.)
15 | CC(C)(C)c1ccc(COc2ccc(-c3csc(Cc4ccc(C(=O)O)cc4)n3)cc2)cc1 [Example 47, 4-(4-(4-(4-tert-butylbenzyloxy)phenyl)-2-thiazolylmethyl)benzoic acid] | 223 to 228 °C
16 | O=C(O)c1ccc(Cc2nc(-c3ccc(OCc4ccc(C5CCCCC5)cc4)cc3)cs2)cc1 [Example 48, 4-(4-(4-(4-cyclohexylbenzyloxy)phenyl)-2-thiazolylmethyl)benzoic acid] | 235 to 238 °C
17 | O=C(O)c1ccc(COc2ccc(-c3csc(Cc4ccc(C(=O)O)cc4)n3)cc2)cc1 [Example 49, 4-(4-(4-(4-carboxybenzyloxy)phenyl)-2-thiazolylmethyl)benzoic acid] | 270 °C (dec.)
18 | CC(C)N(c1ccc(OCC(=O)O)cc1)c1nc(-c2ccc(NC(=O)C3CCCCC3)cc2)cs1 [Example 50, (4-(N-(4-(4-(cyclohexanecarbonylamino)phenyl)-2-thiazolyl)-N-isopropylamino)phenoxy)acetic acid] | 225 °C (dec.)
19 | CC(C)N(c1ccc(OCC(=O)O)cc1)c1nc(-c2ccc(NC(=O)c3ccc(C4CCCCC4)cc3)cc2)cs1 [Example 51, (4-(N-(4-(4-(4-cyclohexylbenzoylamino)phenyl)-2-thiazolyl)-N-isopropylamino)phenoxy)acetic acid] | 240 °C (dec.)
20 | CC(C)N(c1nc(-c2ccc(NC(=O)c3ccc(C4CCCCC4)cc3)cc2)cs1)c1c(F)c(F)c(C(=O)O)c(F)c1F [Example 52, 4-(N-(4-(4-(4-cyclohexylbenzoylamino)phenyl)-2-thiazolyl)-N-isopropylamino)-2,3,5,6-tetrafluorobenzoic acid] | 153 to 157 °C
21 | CC(C)N(c1ccc(OCC(=O)O)cc1)c1nc(-c2ccc(NC(=O)c3ccc(N4CCCCC4)cc3)cc2)cs1 [Example 53, (4-(N-isopropyl-N-(4-(4-(4-piperidinobenzoylamino)phenyl)-2-thiazolyl)amino)phenoxy)acetic acid] | 220 °C (dec.)
22 | CC(C)N(c1ccc(OCC(=O)O)cc1)c1nc(-c2ccc(NC(=O)c3ccc(N4CCOCC4)cc3)cc2)cs1 [Example 54, (4-(N-isopropyl-N-(4-(4-(4-morpholinobenzoylamino)phenyl)-2-thiazolyl)amino)phenoxy)acetic acid] | 250 °C (dec.)
23 | CC(C)N(c1ccc(OCC(=O)O)cc1)c1nc(-c2ccc(NC(=O)c3cc(Cl)cc(Cl)c3)cc2)cs1 [Example 56, (4-(N-(4-(4-(3,5-dichlorobenzoylamino)phenyl)-2-thiazolyl)-N-isopropylamino)phenoxy)acetic acid] | 192 to 194 °C
24 | CC(C)N(c1ccc(OCC(=O)O)cc1)c1nc(-c2ccc(NC(=O)c3ccc(N4CCCCC4)nc3)cc2)cs1 [Example 57, (4-(N-isopropyl-N-(4-(4-(2-piperidino-5-pyridinecarbonylamino)phenyl)-2-thiazolyl)amino)phenoxy)acetic acid] | 237 to 240 °C
25 | CC(C)N(Cc1ccc(C(=O)O)cc1)c1nc(-c2ccc(NC(=O)c3ccc(C4CCCCC4)cc3)cc2)cs1 [Example 61, 4-((N-(4-(4-(4-cyclohexylbenzoylamino)phenyl)-2-thiazolyl)-N-isopropylamino)methyl)benzoic acid] | 250 °C (dec.)
